Entries after “also recorded” stand apart in the source; their conditions may differ. Read-outs that look alike come from different tables or passages of the source.
Tests used:
[1] = tested on: C. elegans; test: C. elegans lifespan assays (liquid and plate); format: in vivo, Caenorhabditis elegans; details: for ILS at 60 µM / ILS at 66 µM: Caenorhabditis elegans
[2] = tested on: NRF2; test: qPCR analysis of NRF2-regulated genes; format: cell-based, human; details: for fold induction at 10 µM: Homo sapiens
How it was run: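 WI-38 cells treated with compound at 10 μM for 24 hrs, then processed by Cells-to-Ct for RNA isolation, RT and qPCR of NRF2-regulated genes (HMOX1, NQO1, GCLC, GSTM1). Expression normalized to B2M, PPIA and GAPDH; siRNA knockdown of FOXO3 or NRF2 (10 nM) preceded treatment in some runs.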

[3] = tested on: WI-38 cells; details: no H2O2 stress, 10 uM; negative control 0.41% ± 0.23%
Experimental: WI-38 cells were seeded on 384-well plates for 24 hrs and then incubated with small molecules for 24 hrs. […] Images were collected on an INCell Analyzer 2000 (GE) and analyzed with the Developer software.

[4] = biological target: T1, human PARP1 (Homo sapiens, UniProt P09874); test: PARP inhibitor assay (HT Fluorescent Homogeneous PARP Inhibition Assay Kit); format: biochemical; details: score
T1 construct: purchased Trevigen
T1 sequence (P09874 whole entry): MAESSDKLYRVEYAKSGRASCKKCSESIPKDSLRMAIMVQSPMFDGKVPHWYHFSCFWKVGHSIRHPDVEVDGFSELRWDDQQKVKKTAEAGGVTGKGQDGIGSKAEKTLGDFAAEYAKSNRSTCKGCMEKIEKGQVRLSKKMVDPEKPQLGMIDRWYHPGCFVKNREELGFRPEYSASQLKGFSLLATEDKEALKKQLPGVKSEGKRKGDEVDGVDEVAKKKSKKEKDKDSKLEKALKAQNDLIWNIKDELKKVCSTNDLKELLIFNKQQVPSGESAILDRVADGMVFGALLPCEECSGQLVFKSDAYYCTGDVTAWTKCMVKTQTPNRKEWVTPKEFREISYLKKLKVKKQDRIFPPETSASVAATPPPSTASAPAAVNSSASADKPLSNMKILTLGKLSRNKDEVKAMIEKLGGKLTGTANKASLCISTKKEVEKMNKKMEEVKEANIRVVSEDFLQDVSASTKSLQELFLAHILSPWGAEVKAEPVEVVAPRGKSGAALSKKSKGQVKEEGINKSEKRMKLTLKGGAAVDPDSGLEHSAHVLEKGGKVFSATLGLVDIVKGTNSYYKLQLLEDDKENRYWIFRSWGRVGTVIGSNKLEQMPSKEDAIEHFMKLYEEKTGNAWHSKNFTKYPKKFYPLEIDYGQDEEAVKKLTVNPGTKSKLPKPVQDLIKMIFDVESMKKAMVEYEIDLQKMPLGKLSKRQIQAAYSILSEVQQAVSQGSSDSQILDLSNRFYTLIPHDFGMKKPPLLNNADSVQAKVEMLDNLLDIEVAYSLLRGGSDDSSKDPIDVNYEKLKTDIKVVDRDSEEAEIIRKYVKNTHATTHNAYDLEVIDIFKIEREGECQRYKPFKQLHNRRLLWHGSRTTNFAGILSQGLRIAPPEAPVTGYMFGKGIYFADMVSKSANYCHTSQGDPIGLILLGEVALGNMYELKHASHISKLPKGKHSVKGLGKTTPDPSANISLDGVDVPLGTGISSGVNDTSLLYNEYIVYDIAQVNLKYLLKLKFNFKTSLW
How it was run: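 Human PARP1 with NAD and activated DNA, compounds at 10 μM final, 30 min at room temperature in dark. Resazurin/diaphorase cycling mix then added for 1 hr in dark before stop buffer; fluorescent homogeneous kit read-out.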

[5] = tested on: FOXO3; test: qPCR analysis of FOXO3-regulated genes; format: cell-based, human; details: for fold induction at 10 µM: Homo sapiens
How it was run: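 WI-38 cells treated with compound at 10 μM for 24 h, followed by Cells-to-Ct RT-qPCR of FOXO3 target genes normalised to B2M, PPIA and GAPDH. FOXO3 or NRF2 dependence tested by prior 10 nM siRNA knockdown (36 h transfection, compound added ~24 h after replating).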

Compound: COc1ccc(C(=O)/C=C/c2cccc(Cl)c2)c(OC)c1 [Gr-4C]
- ILS at 60 µM ([1]; in liquid, wild type, with FuDR, 1.0 × 10^9 bacteria/ml, read-out: relative change of mean lifespan vs control, Trial 1): -14.9%
- ILS at 60 µM ([1]; in liquid, wild type, with FuDR, 2.5 × 10^9 bacteria/ml, read-out: relative change of mean lifespan vs control, Trial 2): 3.1%
- ILS at 60 µM ([1]; on plate, CF512 temperature-sensitive sterile animals, without FuDR, 2.0 × 10^10 bacteria/ml, read-out: relative change of mean lifespan vs control, Trial 3): -1.7%
- ILS at 66 µM ([1]; Assay 2(z), 1.0 × 10^9 bacteria/ml, wild type + FuDR (2012 July), read-out: Lifespan assay in liquid): -14.9%
- ILS at 66 µM ([1]; Assay 3(aa), 2.5 × 10^9 bacteria/ml, wild type + FuDR, read-out: Lifespan assay in liquid): 3.1%
- ILS at 66 µM ([1]; Assay 4(ab), 2.0 × 10^10 bacteria/ml, CF512 worms, no FuDR, read-out: Lifespan assay on plates): -1.7%
- O = Life span- extending scores in worms ([1]; score scale 0 to 2, 4 to 6 independent trials): 0
- M = Lifespan-extending scores in worms ([1]; summary score): 0
- F = Potential NRF2 Activation ([2]; 2-point score): 2
- Potential NRF2 Activation (>=2 target genes induced, by >=1.5-fold) ([2]; Assay 13(p)): YES
- fold induction at 10 µM ([2]; 24 h, Assay 12(o), at 10 uM, qPCR, read-out: Induction of NRF2-regulated genes: GCLC normalized fold-change): 2.51
- fold induction at 10 µM ([2]; 24 h, Assay 12(o), at 10 uM, qPCR, read-out: Induction of NRF2-regulated genes: GSTM1 normalized fold-change): 1.63
- fold induction at 10 µM ([2]; 24 h, Assay 12(o), at 10 uM, qPCR, read-out: Induction of NRF2-regulated genes: HMOX1 normalized fold-change): 89.5
- fold induction at 10 µM ([2]; 24 h, Assay 12(o), at 10 uM, qPCR, read-out: Induction of NRF2-regulated genes: NQO1 normalized fold-change): 5
- fold induction at 10 µM ([2]; rounded fold change, WI-38 cells, 10 μM, 24 hrs (RP11 for Gr-1D, RP29 for Gr-4D), read-out: Summary of effects on NRF2-regulated genes: HMOX1): 89.5
- fold induction at 10 µM ([2]; rounded fold change, WI-38 cells, 10 μM, 24 hrs (RP29 for Gr-4D), read-out: Summary of effects on NRF2-regulated genes: GSTM1): 1.63
- fold induction at 10 µM ([2]; rounded fold change, WI-38 cells, 10 μM, 24 hrs (RP29 for Gr-4D), read-out: Summary of effects on NRF2-regulated genes: NQO1): 5
- fold induction at 10 µM ([2]; rounded fold change, WI-38 cells, 10 μM, 24 hrs, read-out: Summary of effects on NRF2-regulated genes: GCLC): 2.51
- fold induction at 10 µM ([2]; 10 μM, 24 hrs, WI-38, read-out: Expression of at least two NRF2 target genes): > 1.5
- fold induction at 10 µM ([2]; 10 μM, 24 hrs, WI-38 cells, qPCR, normalized to B2M, n = 4, read-out: GCLC expression, normalized fold change (NRF2-regulated gene)): 2.51
- fold induction at 10 µM ([2]; 10 μM, 24 hrs, WI-38 cells, qPCR, normalized to B2M, n = 4, read-out: GSTM1 expression, normalized fold change (NRF2-regulated gene)): 1.63
- fold induction at 10 µM ([2]; 10 μM, 24 hrs, WI-38 cells, qPCR, normalized to B2M, n = 4, read-out: HMOX1 expression, normalized fold change (NRF2-regulated gene)): 89.5
- fold induction at 10 µM ([2]; 10 μM, 24 hrs, WI-38 cells, qPCR, normalized to B2M, n = 4, read-out: NQO1 expression, normalized fold change (NRF2-regulated gene)): 5
- fold induction at 10 µM ([2]; WI-38 cells, 10 μM, 24 hrs, n=4, qPCR normalized by B2M, read-out: GCLC Normalized fold change): 2.51
- fold induction at 10 µM ([2]; WI-38 cells, 10 μM, 24 hrs, n=4, qPCR normalized by B2M, read-out: GSTM1 Normalized fold change): 1.63
- fold induction at 10 µM ([2]; WI-38 cells, 10 μM, 24 hrs, n=4, qPCR normalized by B2M, read-out: HMOX1 Normalized fold change): 89.5
- fold induction at 10 µM ([2]; WI-38 cells, 10 μM, 24 hrs, n=4, qPCR normalized by B2M, read-out: NQO1 Normalized fold change): 5
- F = Potential NRF2 Activation ([2]; summary score): 2
- Percentage of propidium iodide-positive dead cells (no H2O2 stress treatment), at 10 uM [3]: 0.47% ± 0.20%,
- L = PARP inhibition [4]: 0
- Induction of at least two of five FOXO3-regulated genes (SOD2, GADD45A, CAT, DDB1, TXNIP) ([5]; 10 μM, 24 hrs, WI-38): significant induction; also recorded: significant, induction
- E = Potential FOXO3 Activation ([5]; 2-point score): 0
- fold induction at 10 µM ([5]; 24 h, Assay 10(m), at 10 uM, qPCR, read-out: Induction of FOXO3-regulated genes: CAT normalized fold-change): 1.19
- fold induction at 10 µM ([5]; 24 h, Assay 10(m), at 10 uM, qPCR, read-out: Induction of FOXO3-regulated genes: DDB1 normalized fold-change): 1.51
- fold induction at 10 µM ([5]; 24 h, Assay 10(m), at 10 uM, qPCR, read-out: Induction of FOXO3-regulated genes: GADD45A normalized fold-change): 1.23
- fold induction at 10 µM ([5]; 24 h, Assay 10(m), at 10 uM, qPCR, read-out: Induction of FOXO3-regulated genes: SESN1 normalized fold-change): 1.42
- fold induction at 10 µM ([5]; 24 h, Assay 10(m), at 10 uM, qPCR, read-out: Induction of FOXO3-regulated genes: TXNIP normalized fold-change): 0.18
- fold induction at 10 µM ([5]; 10 μM, 24 hrs, WI-38 cells, qPCR, normalized to B2M, n = 4, read-out: CAT expression, normalized fold change (FOXO3-regulated gene)): 1.19
- fold induction at 10 µM ([5]; 10 μM, 24 hrs, WI-38 cells, qPCR, normalized to B2M, n = 4, read-out: DDB1 expression, normalized fold change (FOXO3-regulated gene)): 1.51
- fold induction at 10 µM ([5]; 10 μM, 24 hrs, WI-38 cells, qPCR, normalized to B2M, n = 4, read-out: GADD45A expression, normalized fold change (FOXO3-regulated gene)): 1.23
- fold induction at 10 µM ([5]; 10 μM, 24 hrs, WI-38 cells, qPCR, normalized to B2M, n = 4, read-out: SESN1 expression, normalized fold change (FOXO3-regulated gene)): 1.42
- fold induction at 10 µM ([5]; 10 μM, 24 hrs, WI-38 cells, qPCR, normalized to B2M, n = 4, read-out: TXNIP expression, normalized fold change (FOXO3-regulated gene)): 0.18
- fold induction at 10 µM ([5]; WI-38 cells, 10 μM, 24 hrs, n=4, qPCR normalized by B2M, read-out: DDB1 Normalized fold change): 1.51
- fold induction at 10 µM ([5]; WI-38 cells, 10 μM, 24 hrs, n=4, qPCR normalized by B2M, read-out: GADD45A Normalized fold change): 1.23
- fold induction at 10 µM ([5]; WI-38 cells, 10 μM, 24 hrs, n=4, qPCR normalized by B2M, read-out: SESN1 Normalized fold change): 1.42
- fold induction at 10 µM ([5]; fold change, qPCR, WI-38 cells, 10 μM, 24 hrs, read-out: Summary of effects on FOXO3-regulated genes: CAT): 1.19
- fold induction at 10 µM ([5]; fold change, qPCR, WI-38 cells, 10 μM, 24 hrs, read-out: Summary of effects on FOXO3-regulated genes: DDB1): 1.51
- fold induction at 10 µM ([5]; fold change, qPCR, WI-38 cells, 10 μM, 24 hrs, read-out: Summary of effects on FOXO3-regulated genes: GADD45A): 1.23
- fold induction at 10 µM ([5]; fold change, qPCR, WI-38 cells, 10 μM, 24 hrs, read-out: Summary of effects on FOXO3-regulated genes: SESN1): 1.42
- fold induction at 10 µM ([5]; fold change, qPCR, WI-38 cells, 10 μM, 24 hrs, read-out: Summary of effects on FOXO3-regulated genes: TXNIP): 0.18
- fold induction at 10 µM ([5]; qPCR, WI-38 cells, 10 μM, n=4, 24 hrs, normalized by B2M, read-out: CAT Normalized fold change): 1.19
- fold induction at 10 µM ([5]; qPCR, WI-38 cells, 10 μM, n=4, 24 hrs, normalized by B2M, read-out: SOD2 Normalized fold change): 1.04
- fold induction at 10 µM ([5]; qPCR, WI-38 cells, 10 μM, n=4, 24 hrs, normalized by B2M, read-out: TXNIP Normalized fold change): 0.179
- K = Sestrin induction ([5]; score): 0
- E = Potential FOXO3 Activation ([5]; summary score): 0
